Results as given in paper PMC10272271, “MAM-2201 acute administration impairs motor, sensorimotor, prepulse inhibition, and memory functions in mice: a comparison with its analogue AM-2201” (Psychopharmacology, 2023).

Assays:
Type in all cases: in vivo, mouse
CD-1 male mice [1] = assay: Visual object response test; details: AM 251 6 mg/kg i.p. 20 min before MAM-2201 6 mg/kg
Protocol: For the overall study 234 mice were used. In sensorimotor (visual object, visual placing, acoustic, and overall tactile responses) tests for MAM-2201, experiments for each treatment dose (vehicle or 5 different MAM-2201 doses, 0.01, 0.1, 1, 3, and 6 mg/kg) used 8 mice (total mice used: 48) and for MAM-2201 with AM-251 pretreatment, experiments for each dose regimen (vehicle + AM-251 or MAM-2201 + AM-251, 6 mg/kg) used 16 mice. In the analysis of spontaneous locomotion (open field test) for MAM-2201, experiments for each treatment regimen (vehicle or 4 different MAM-2201 doses, 0.01, 0.1, 1, and 6 mg/kg) used 10 mice (total mice used: 50). In the PPI test for MAM-2201, experiments for each treatment (vehicle or 3 different MAM-2201 doses, 0.01, 0.1, and 1 mg/kg) used 10 mice (total mice used: 40), while for MAM-2201 experiments in the Novel Object Recognition (NOR) test for each treatment regimen (vehicle or 3 different MAM-2201 and vehicle or 3 different AM-2201 doses, 0.01, 0.1, and 1 mg/kg) used 10 mice (total mice used: 80). In the present study the effect of MAM-2201 on sensorimotor responses was investigated using a battery of behavioral tests widely used in studies of “safety-pharmacology,” that we routinely adopted in our laboratory, for the preclinical characterization of new molecules in rodents (Ossato et al. [2015]; Vigolo et al. [2015]; Bilel et al. [2020]). The voluntary and involuntary motor responses of the animal to different visual, acoustic, and tactile stimuli were evaluated according to the procedure described in our previous studies (Ossato et al. [2015]; Bilel et al. [2020]). To reduce the number of animals used, mice were evaluated in functional observational tests carried out in a consecutive manner according to the following time scheme: observation of visual object responses (frontal and lateral view), acoustic response, tactile response (vibrissae, corneal and pinnae reflexes), and visual placing response. Sensorimotor tests were measured at 10, 30, 60, 120, 180, 240, and 300 min after injections for the evaluation of the visual object, acoustic and the tactile response, and at 15, 45, 75, 135, 195, 255, and 315 min after injections for the evaluation of visual placing response. Behavioral tests were conducted in a thermostated (temperature: 20–22 °C, humidity: 45–55%) and light (150 lx) controlled room with a background noise of 40 ± 4 dB. The apparatus for the visual object, acoustic and tactile sensorimotor tests consisted of an experimental chamber (350 × 350 × 350 mm) with black methacrylate walls and a transparent front door. During the week before the experiment, each mouse was placed in the box and handled (once a day) on every other day, i.e., 3 times, to get used to both the environment and the experimenter. To avoid olfactory cues, cages were carefully cleaned with a dilute (5%) ethanol solution and rinsed with water. All experiments were performed between 8:30 AM and 2:00 PM and conducted by trained observers working in pairs who were blinded to the treatment being tested (Ossato et al. [2015]). The behavior of mice was videotaped by a camera (B/W USB Camera day & night with varifocal lens; Ugo Basile, Italy) placed at the top or on one side of the box and analyzed off-line by a different trained operator. Spontaneous locomotion studies were conducted in a separate set of animals through ANYMAZE test. Sensory gating was evaluated by analysis of the pre-pulse inhibition (PPI) of the acoustic startle reflex as previously described (Bilel et al. [2020]).
Visual object response test was used to evaluate the ability of the mouse to see an object approaching from the front (frontal view) or the side (lateral view) that typically induces the animal to shift or turn the head, bring the forelimbs in the position of “defense” or retreat from it. For the frontal visual response, a white horizontal bar was moved frontally to the mouse head and the maneuver was repeated 3 times. […]

CD-1 male mice [2] = assay: Visual placing response test; details: AM 251 6 mg/kg i.p. before MAM-2201 6 mg/kg
Protocol: For the overall study 234 mice were used. In sensorimotor (visual object, visual placing, acoustic, and overall tactile responses) tests for MAM-2201, experiments for each treatment dose (vehicle or 5 different MAM-2201 doses, 0.01, 0.1, 1, 3, and 6 mg/kg) used 8 mice (total mice used: 48) and for MAM-2201 with AM-251 pretreatment, experiments for each dose regimen (vehicle + AM-251 or MAM-2201 + AM-251, 6 mg/kg) used 16 mice. In the analysis of spontaneous locomotion (open field test) for MAM-2201, experiments for each treatment regimen (vehicle or 4 different MAM-2201 doses, 0.01, 0.1, 1, and 6 mg/kg) used 10 mice (total mice used: 50). In the PPI test for MAM-2201, experiments for each treatment (vehicle or 3 different MAM-2201 doses, 0.01, 0.1, and 1 mg/kg) used 10 mice (total mice used: 40), while for MAM-2201 experiments in the Novel Object Recognition (NOR) test for each treatment regimen (vehicle or 3 different MAM-2201 and vehicle or 3 different AM-2201 doses, 0.01, 0.1, and 1 mg/kg) used 10 mice (total mice used: 80). […] The voluntary and involuntary motor responses of the animal to different visual, acoustic, and tactile stimuli were evaluated according to the procedure described in our previous studies (Ossato et al. [2015]; Bilel et al. [2020]). To reduce the number of animals used, mice were evaluated in functional observational tests carried out in a consecutive manner according to the following time scheme: observation of visual object responses (frontal and lateral view), acoustic response, tactile response (vibrissae, corneal and pinnae reflexes), and visual placing response. Sensorimotor tests were measured at 10, 30, 60, 120, 180, 240, and 300 min after injections for the evaluation of the visual object, acoustic and the tactile response, and at 15, 45, 75, 135, 195, 255, and 315 min after injections for the evaluation of visual placing response. […] Sensory gating was evaluated by analysis of the pre-pulse inhibition (PPI) of the acoustic startle reflex as previously described (Bilel et al. [2020]). […]

CD-1 male mice [3] = assay: Acoustic response test; details: AM 251 6 mg/kg i.p. before MAM-2201 6 mg/kg
Protocol: For the overall study 234 mice were used. In sensorimotor (visual object, visual placing, acoustic, and overall tactile responses) tests for MAM-2201, experiments for each treatment dose (vehicle or 5 different MAM-2201 doses, 0.01, 0.1, 1, 3, and 6 mg/kg) used 8 mice (total mice used: 48) and for MAM-2201 with AM-251 pretreatment, experiments for each dose regimen (vehicle + AM-251 or MAM-2201 + AM-251, 6 mg/kg) used 16 mice. In the analysis of spontaneous locomotion (open field test) for MAM-2201, experiments for each treatment regimen (vehicle or 4 different MAM-2201 doses, 0.01, 0.1, 1, and 6 mg/kg) used 10 mice (total mice used: 50). In the PPI test for MAM-2201, experiments for each treatment (vehicle or 3 different MAM-2201 doses, 0.01, 0.1, and 1 mg/kg) used 10 mice (total mice used: 40), while for MAM-2201 experiments in the Novel Object Recognition (NOR) test for each treatment regimen (vehicle or 3 different MAM-2201 and vehicle or 3 different AM-2201 doses, 0.01, 0.1, and 1 mg/kg) used 10 mice (total mice used: 80). In the present study the effect of MAM-2201 on sensorimotor responses was investigated using a battery of behavioral tests widely used in studies of “safety-pharmacology,” that we routinely adopted in our laboratory, for the preclinical characterization of new molecules in rodents (Ossato et al. [2015]; Vigolo et al. [2015]; Bilel et al. [2020]). The voluntary and involuntary motor responses of the animal to different visual, acoustic, and tactile stimuli were evaluated according to the procedure described in our previous studies (Ossato et al. [2015]; Bilel et al. [2020]). To reduce the number of animals used, mice were evaluated in functional observational tests carried out in a consecutive manner according to the following time scheme: observation of visual object responses (frontal and lateral view), acoustic response, tactile response (vibrissae, corneal and pinnae reflexes), and visual placing response. Sensorimotor tests were measured at 10, 30, 60, 120, 180, 240, and 300 min after injections for the evaluation of the visual object, acoustic and the tactile response, and at 15, 45, 75, 135, 195, 255, and 315 min after injections for the evaluation of visual placing response. Behavioral tests were conducted in a thermostated (temperature: 20–22 °C, humidity: 45–55%) and light (150 lx) controlled room with a background noise of 40 ± 4 dB. The apparatus for the visual object, acoustic and tactile sensorimotor tests consisted of an experimental chamber (350 × 350 × 350 mm) with black methacrylate walls and a transparent front door. During the week before the experiment, each mouse was placed in the box and handled (once a day) on every other day, i.e., 3 times, to get used to both the environment and the experimenter. To avoid olfactory cues, cages were carefully cleaned with a dilute (5%) ethanol solution and rinsed with water. All experiments were performed between 8:30 AM and 2:00 PM and conducted by trained observers working in pairs who were blinded to the treatment being tested (Ossato et al. [2015]). The behavior of mice was videotaped by a camera (B/W USB Camera day & night with varifocal lens; Ugo Basile, Italy) placed at the top or on one side of the box and analyzed off-line by a different trained operator. […] Sensory gating was evaluated by analysis of the pre-pulse inhibition (PPI) of the acoustic startle reflex as previously described (Bilel et al. [2020]). […]

CD-1 male mice [4] = assay: Overall tactile response (vibrissae, corneal, pinnae reflexes); details: AM 251 6 mg/kg i.p. before MAM-2201 6 mg/kg
Protocol: For the overall study 234 mice were used. In sensorimotor (visual object, visual placing, acoustic, and overall tactile responses) tests for MAM-2201, experiments for each treatment dose (vehicle or 5 different MAM-2201 doses, 0.01, 0.1, 1, 3, and 6 mg/kg) used 8 mice (total mice used: 48) and for MAM-2201 with AM-251 pretreatment, experiments for each dose regimen (vehicle + AM-251 or MAM-2201 + AM-251, 6 mg/kg) used 16 mice. In the analysis of spontaneous locomotion (open field test) for MAM-2201, experiments for each treatment regimen (vehicle or 4 different MAM-2201 doses, 0.01, 0.1, 1, and 6 mg/kg) used 10 mice (total mice used: 50). In the PPI test for MAM-2201, experiments for each treatment (vehicle or 3 different MAM-2201 doses, 0.01, 0.1, and 1 mg/kg) used 10 mice (total mice used: 40), while for MAM-2201 experiments in the Novel Object Recognition (NOR) test for each treatment regimen (vehicle or 3 different MAM-2201 and vehicle or 3 different AM-2201 doses, 0.01, 0.1, and 1 mg/kg) used 10 mice (total mice used: 80). In the present study the effect of MAM-2201 on sensorimotor responses was investigated using a battery of behavioral tests widely used in studies of “safety-pharmacology,” that we routinely adopted in our laboratory, for the preclinical characterization of new molecules in rodents (Ossato et al. [2015]; Vigolo et al. [2015]; Bilel et al. [2020]). The voluntary and involuntary motor responses of the animal to different visual, acoustic, and tactile stimuli were evaluated according to the procedure described in our previous studies (Ossato et al. [2015]; Bilel et al. [2020]). To reduce the number of animals used, mice were evaluated in functional observational tests carried out in a consecutive manner according to the following time scheme: observation of visual object responses (frontal and lateral view), acoustic response, tactile response (vibrissae, corneal and pinnae reflexes), and visual placing response. Sensorimotor tests were measured at 10, 30, 60, 120, 180, 240, and 300 min after injections for the evaluation of the visual object, acoustic and the tactile response, and at 15, 45, 75, 135, 195, 255, and 315 min after injections for the evaluation of visual placing response. Behavioral tests were conducted in a thermostated (temperature: 20–22 °C, humidity: 45–55%) and light (150 lx) controlled room with a background noise of 40 ± 4 dB. […] The behavior of mice was videotaped by a camera (B/W USB Camera day & night with varifocal lens; Ugo Basile, Italy) placed at the top or on one side of the box and analyzed off-line by a different trained operator. […] Sensory gating was evaluated by analysis of the pre-pulse inhibition (PPI) of the acoustic startle reflex as previously described (Bilel et al. [2020]). […]

## Cc1c(C(=O)NN2CCCCC2)nn(-c2ccc(Cl)cc2Cl)c1-c1ccc(I)cc1 [AM 251, 1-(2,4-Dichlorophenyl)-5-(4-iodophenyl)-4-methyl-N-(piperidin-1-yl)-1H-pyrazole-3-carboxamide, reference compound]
CD-1 male mice [1]
  effect of pre-treatment on MAM-2201-induced inhibition of visual object response: significantly prevented
CD-1 male mice [2]
  effect of pre-treatment on MAM-2201-induced inhibition of visual placing response: prevented
CD-1 male mice [3]
  effect of pre-treatment on MAM-2201-induced inhibition of acoustic response: prevented
CD-1 male mice [4]
  effect of pre-treatment on MAM-2201-induced inhibition of overall tactile response: prevented
